Like-named read-outs stand apart in the source and are kept apart here.
Molecular target: T1, human M2 receptor (Homo sapiens, UniProt P08172)
T1 sequence (P08172 1-466): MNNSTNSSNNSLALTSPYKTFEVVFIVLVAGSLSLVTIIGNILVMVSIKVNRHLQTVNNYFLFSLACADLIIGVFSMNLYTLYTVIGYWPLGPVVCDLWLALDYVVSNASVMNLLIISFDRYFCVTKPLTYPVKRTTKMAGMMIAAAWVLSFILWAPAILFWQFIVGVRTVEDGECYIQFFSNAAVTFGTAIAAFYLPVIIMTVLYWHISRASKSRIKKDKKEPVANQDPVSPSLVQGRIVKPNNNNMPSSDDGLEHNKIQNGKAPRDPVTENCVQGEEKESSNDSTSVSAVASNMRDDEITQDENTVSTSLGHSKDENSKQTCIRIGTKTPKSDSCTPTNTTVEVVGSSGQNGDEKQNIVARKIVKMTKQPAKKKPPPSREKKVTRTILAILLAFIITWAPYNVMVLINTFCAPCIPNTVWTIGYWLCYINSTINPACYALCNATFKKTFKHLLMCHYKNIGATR
Conditions: for Emax: read-out: Efficiency, boosting of the acetylcholine effect at EC20 acetylcholine concentration; for Efficiency: boosting of the acetylcholine effect at EC20 acetylcholine concentration

[1] = Receptor activity EC50, allosteric potency at EC20 acetylcholine, M2-GIRK1/4 reporter cells, in some cases mean of two or more determinations
[2] = Receptor activity EC50, M2-GIRK1/4 activation test, acetylcholine at EC20, allosteric potency, in some cases mean values from two or more determinations

Row | Structure (SMILES) | EC50 [1] | Emax (M2-GIRK1/4 reporter cells) | EC50 [2] | Efficiency (M2-GIRK1/4 reporter cells)
1 | CCC1CCN(c2ccc3c(=O)c(C(=O)N[C@@H](C4CC4)C(F)(F)F)cn(-c4c(F)cc(F)cc4F)c3n2)C(=O)N1 (single isomer, unassigned) [Example 447, N-[(1 S)-1-Cyclopropyl-2,2,2-trifluoroethyl]-7-[4-ethyl-2-oxotetrahydropyrimidin-1(2H)-yl]-4-oxo-1-(2,4,6-trifluorophenyl)-1,4-dihydro-1,8-naphthyridine-3-carboxamide] | 24 nM | 93% | – | –
2 | O=C(NC(c1c(F)cccc1F)C(F)(F)F)c1cn(-c2ccc(F)cc2F)c2nc(N3CCC(O)CC3=O)ccc2c1=O (racemic) [Example 252, rac-1-(2,4-Difluorophenyl)-N-[1-(2,6-difluorophenyl)-2,2,2-trifluoroethyl]-7-[4-hydroxy-2-oxopiperidin-1-yl]-4-oxo-1,4-dihydro-1,8-naphthyridine-3-carboxamide] | – | – | 109 nM | –
3 | O=C(N[C@@H](C1CC1)C(F)(F)F)c1cn(-c2c(F)cc(F)cc2F)c2nc(N3CC[C@@H](O)[C@H](O)C3)ccc2c1=O (single isomer, unassigned) [Example 617, N-[(1 S)-1-Cyclopropyl-2,2,2-trifluoroethyl]-7-[trans-3,4-dihydroxypiperidin-1-yl]-4-oxo-1-(2,4,6-trifluorophenyl)-1,4-dihydro-1,8-naphthyridine-3-carboxamide] | 96 nM | – | – | 98.0%
4 | CN(CCF)c1ccc2c(=O)c(C(=O)NC34CC5CC(CC(F)(C5)C3)C4)cn(-c3ccc(F)cc3F)c2n1 [Example 102, 1-(2,4-Difluorophenyl)-7-[(2-fluoroethyl)(methyl)amino]-N-(3-fluorotricyclo[3.3.1.1^3,7]dec-1-yl)-4-oxo-1,4-dihydro-1,8-naphthyridine-3-carboxamide] | – | – | 31 nM | –
5 | C[C@H](NC(=O)c1cn(-c2c(F)cc(F)cc2F)c2nc(N3CCNC3=O)ccc2c1=O)C(F)(F)F [Example 341, 4-Oxo-7-(2-oxoimidazolidin-1-yl)-1-(2,4,6-trifluorophenyl)-N-[(2S)-1,1,1-trifluoropropan-2-yl]-1,4-dihydro-1,8-naphthyridine-3-carboxamide] | – | – | 56 nM | –
6 | O=C(NC(CC(F)(F)F)C(F)(F)F)c1cn(-c2c(F)cc(F)cc2F)c2nc(N3CCNC3=O)ccc2c1=O (racemic) [Example 588, N-[1,1,1,4,4,4-Hexafluorobutan-2-yl]-4-oxo-7-(2-oxoimidazolidin-1-yl)-1-(2,4,6-trifluorophenyl)-1,4-dihydro-1,8-naphthyridine-3-carboxamide] | 9 nM | – | – | 100.0%
7 | CC1(O)CCCN(c2ccc3c(=O)c(C(=O)N[C@@H](C4CC4)C(F)(F)F)cn(-c4c(F)cc(F)cc4F)c3n2)C1 (some centres unmarked) [Example 665, N-[(1 S)-1-Cyclopropyl-2,2,2-trifluoroethyl]-7-[3-hydroxy-3-methylpiperidin-1-yl]-4-oxo-1-(2,4,6-trifluorophenyl)-1,4-dihydro-1,8-naphthyridine-3-carboxamide] | 73 nM | 92.5% | – | –
8 | C[C@H](NC(=O)c1cn(-c2c(F)cc(F)cc2Cl)c2nc(N3CC4CC4(O)C3)ccc2c1=O)C(F)(F)F (stereo partly drawn) [Example 408, 1-(2-Chloro-4,6-difluorophenyl)-7-[1-hydroxy-3-azabicyclo[3.1.0]hex-3-yl]-4-oxo-N-[(2S)-1,1,1-trifluoropropan-2-yl]-1,4-dihydro-1,8-naphthyridine-3-carboxamide] | 9 nM | 94% | – | –
9 | O=C(N[C@@H](C1CC1)C(F)(F)F)c1cn(-c2c(F)cc(F)cc2F)c2nc(N3C[C@H](C(=O)O)OC3=O)ccc2c1=O [Example 670, (5R)-3-[6-{[(1S)-1-Cyclopropyl-2,2,2-trifluoroethyl]carbamoyl}-5-oxo-8-(2,4,6-trifluorophenyl)-5,8-dihydro-1,8-naphthyridin-2-yl]-2-oxo-1,3-oxazolidine-5-carboxylic acid] | 1450 nM | 66.5% | – | –
10 | O=C(NC12CC3CC(CC(C3)C1)C2)c1cn(-c2ccc(F)cc2F)c2nc(N3CC(F)(F)CCC3=O)ccc2c1=O [Example 171] | – | – | 30 nM | –

Next, values leading:

Row | EC50 [1] | Emax (M2-GIRK1/4 reporter cells) | EC50 [2] | Efficiency (M2-GIRK1/4 reporter cells) | Structure (SMILES)
11 | – | – | 143 nM | – | CCC(NC(=O)c1cn(-c2ccc(F)cc2F)c2nc(N(C)CC(F)(F)F)ccc2c1=O)C(F)(F)F (racemic) [Example 100]
12 | 6 nM | 100% | – | – | O=C(NC(C1CCC1)C(F)(F)F)c1cn(-c2c(F)cc(F)cc2F)c2nc(N3C[C@@H](O)CC3=O)ccc2c1=O (mixture of isomers) [Example 505, N-[1-Cyclobutyl-2,2,2-trifluoroethyl]-7-[(4S)-4-hydroxy-2-oxopyrrolidin-1-yl]-4-oxo-1-(2,4,6-trifluorophenyl)-1,4-dihydro-1,8-naphthyridine-3-carboxamide]
13 | – | – | 187 nM | – | CN(CCF)c1ccc2c(=O)c(C(=O)NC3(C(F)(F)F)CC3)cn(-c3ccc(F)cc3F)c2n1 [Example 109, 1-(2,4-Difluorophenyl)-7-[(2-fluoroethyl)(methyl)amino]-4-oxo-N-[1-(trifluoromethyl)cyclopropyl]-1,4-dihydro-1,8-naphthyridine-3-carboxamide]
14 | – | – | 147 nM | – | O=C(NC(c1c(F)cccc1F)C(F)(F)F)c1cn(-c2ccc(F)cc2F)c2nc(N3CCC(O)CC3=O)ccc2c1=O (single isomer, unassigned) [Example 256, 1-(2,4-Difluorophenyl)-N-[1-(2,6-difluorophenyl)-2,2,2-trifluoroethyl]-7-[4-hydroxy-2-oxopiperidin-1-yl]-4-oxo-1,4-dihydro-1,8-naphthyridine-3-carboxamide]
15 | 14 nM | 97.5% | – | – | CC1C(=O)N(c2ccc3c(=O)c(C(=O)N[C@@H](C4CC4)C(F)(F)F)cn(-c4c(F)cc(F)cc4F)c3n2)CC1O (some centres unmarked) [Example 579, N-[(1 S)-1-Cyclopropyl-2,2,2-trifluoroethyl]-7-[4-hydroxy-3-methyl-2-oxopyrrolidin-1-yl]-4-oxo-1-(2,4,6-trifluorophenyl)-1,4-dihydro-1,8-naphthyridine-3-carboxamide]
16 | – | – | 1600 nM | – | CC[C@@H](NC(=O)c1cn(-c2ccccc2C(F)(F)F)c2nc(N3C[C@@H](O)CC3=O)ccc2c1=O)C(F)(F)F (single isomer, unassigned) [Example 270]
17 | – | – | – | 89.5% | O=C(NC12CC(C1)C2)c1cn(-c2c(F)cc(F)cc2F)c2nc(N3CC(O)C4(CC4)C3)ccc2c1=O (racemic) [Example 628, N-(Bicyclo[1.1.1]pent-1-yl)-7-[7-hydroxy-5-azaspiro[2.4]hept-5-yl]-4-oxo-1-(2,4,6-trifluorophenyl)-1,4-dihydro-1,8-naphthyridine-3-carboxamide]
18 | – | – | 82 nM | – | O=C(NC12CC3CC(CC(C3)C1)C2)c1cn(-c2ccc(F)cc2F)c2nc(N3CCCC(O)C3)ccc2c1=O (racemic) [Example 14, rac-1-(2,4-Difluorophenyl)-7-(3-hydroxypiperidin-1-yl)-4-oxo-N-(tricyclo[3.3.1.1^3,7]dec-1-yl)-1,4-dihydro-1,8-naphthyridine-3-carboxamide]
19 | 48 nM | 95.5% | – | – | O=C(N[C@@H](C1CC1)C(F)(F)F)c1cn(-c2c(F)cc(F)cc2F)c2nc(N3CCC[C@@H]3CO)ccc2c1=O [Example 661, N-[(1 S)-1-Cyclopropyl-2,2,2-trifluoroethyl]-7-[(2R)-2-(hydroxymethyl)pyrrolidin-1-yl]-4-oxo-1-(2,4,6-trifluorophenyl)-1,4-dihydro-1,8-naphthyridine-3-carboxamide]
20 | – | – | 71 nM | – | C[C@H](NC(=O)c1cn(-c2c(F)cccc2F)c2nc(N3CC4CC4(O)C3)ccc2c1=O)C(F)(F)F (single isomer, unassigned) [Example 313]
21 | 24 nM | 100% | – | – | C[C@H](NC(=O)c1cn(-c2c(F)cc(F)cc2F)c2nc(N3C[C@@H](O)CC3=O)ccc2c1=O)C1CC1 [Example 478, N-[(1 S)-1-Cyclopropylethyl]-7-[(4S)-4-hydroxy-2-oxopyrrolidin-1-yl]-4-oxo-1-(2,4,6-trifluorophenyl)-1,4-dihydro-1,8-naphthyridine-3-carboxamide]
22 | – | – | 10 nM | – | CN(C)c1ccc2c(=O)c(C(=O)NC34CCC(CC3)CC4)cn(-c3ccc(F)cc3Cl)c2n1 [Example 152, N-(Bicyclo[2.2.2]oct-1-yl)-1-(2-chloro-4-fluorophenyl)-7-(dimethylamino)-4-oxo-1,4-dihydro-1,8-naphthyridine-3-carboxamide]
23 | – | – | 483 nM | – | O=C(NC(c1c(F)cccc1F)C(F)(F)F)c1cn(-c2ccc(F)cc2F)c2nc(N3CCC(O)CC3=O)ccc2c1=O (single isomer, unassigned) [Example 253, 1-(2,4-Difluorophenyl)-N-[1-(2,6-difluorophenyl)-2,2,2-trifluoroethyl]-7-[4-hydroxy-2-oxopiperidin-1-yl]-4-oxo-1,4-dihydro-1,8-naphthyridine-3-carboxamide]
24 | 92 nM | 98% | – | – | CC[C@@H](NC(=O)c1cn(-c2ccc(F)cc2F)c2nc(N3CCC(C)C3=O)ccc2c1=O)C(F)(F)F (stereo partly drawn) [Example 431, 1-(2,4-Difluorophenyl)-7-[3-methyl-2-oxopyrrolidin-1-yl]-4-oxo-N-[(2R)-1,1,1-trifluorobutan-2-yl]-1,4-dihydro-1,8-naphthyridine-3-carboxamide]
